In US8937091B2 (Japan Science and Technology Agency, priority 2009, dated 2015):

Columns and labels:
[1] = tested on: SOCE (store operated calcium entry) in CHO cells; assay: Assay of SOCE (store operated calcium entry)-inhibiting action; format: cell-based, Chinese hamster; conditions: CHO cells, thapsigargin; for inhibition at 10 µM / inhibition at 30 µM / inhibition at 100 µM: Cricetulus griseus, CHO, read-out: SOCE level (percentage of inhibition)
Method in brief: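 CHO cells in calcium-free BSS received compound, then 1 μM thapsigargin 2 min later to deplete stores; after 9 min, 2 mM calcium chloride (final) added. Percent inhibition of the rise in intracellular calcium determined at various compound concentrations.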

[2] = tested on: IICR (IP3 induced calcium release) in CHO cells; assay: Assay of IICR (IP3 induced calcium release)-inhibiting action; format: cell-based, Chinese hamster; conditions: CHO cells, 10 μM ATP; for inhibition at 10 µM / inhibition at 30 µM / inhibition at 100 µM: Cricetulus griseus, CHO, read-out: IICR level (percentage of inhibition)
Method in brief: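 CHO cell medium replaced with calcium-containing BSS; compound added 1 min later, then 10 μM ATP after a further 2 min. Percent inhibition of the ATP-evoked rise in intracellular calcium determined at each compound concentration.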

Compound | inhibition at 10 µM ([1]; test compound 10 μmol) | inhibition at 30 µM ([1]; test compound 30 μmol) | inhibition at 100 µM ([1]; test compound 100 μmol) | inhibition at 10 µM ([2]; test compound 10 μmol) | inhibition at 30 µM ([2]; test compound 30 μmol) | inhibition at 100 µM ([2]; test compound 100 μmol) | SOCE level (percentage of inhibition) ([1]; test compound 10 μmol) | SOCE level (percentage of inhibition) ([1]; test compound 30 μmol) | SOCE level (percentage of inhibition) ([1]; test compound 100 μmol) | IICR level (percentage of inhibition) ([2]; test compound 10 μmol) | IICR level (percentage of inhibition) ([2]; test compound 30 μmol) | IICR level (percentage of inhibition) ([2]; test compound 100 μmol)
Cc1csc(C(=O)CCN(CCO)Cc2ccccc2)c1 [Example 323, 2-(N-benzylhydroxyethyl)aminoethyl-4-methyl-2-thienylketone] | 0% | 0% | 30% | 30% | 50% | 30% |  |  |  |  |  | 
CC(C)(C)N(CCC(=O)c1ccc(Br)cc1)Cc1ccccc1 [Example 324, 2-(N-benzyl-t-butyl)aminoethyl-4-bromophenylketone] | 20% | 20% | 20% | 50% | 40% | 40% |  |  |  |  |  | 
O=C(CCN(Cc1ccccc1)Cc1ccccc1)c1ccc(Br)s1 [Example 325, 2-(N-dibenzyl)aminoethyl-5-bromo-2-thienylketone] | 0% | 20% | 40% | 20% | 20% | 50% |  |  |  |  |  | 
CN(CCC(=O)c1ccc(Br)s1)Cc1ccccc1 [Example 326, 2-(N-benzylmethyl)aminoethyl-5-bromo-2-thienylketone] | 10% | 30% | 60% | 40% | 10% | 40% |  |  |  |  |  | 
O=C(CCN(CCO)Cc1ccccc1)c1ccc(Br)s1 [Example 327, 2-(N-benzylhydroxyethyl)aminoethyl-5-bromo-2-thienylketone] | 20% | 20% | 30% | 70% | 10% | 40% |  |  |  |  |  | 
CN(CCO)CCC(=O)c1ccc(Br)s1 [Example 328, 2-(N-hydroxyethylmethyl)aminoethyl-5-bromo-2-thienylketone] | 10% | 10% | 0% | 0% | 10% | 80% |  |  |  |  |  | 
CC(C)N(CCO)CCC(=O)c1ccc(Br)s1 [Example 329, 2-(N-hydroxyethylisopropyl)aminoethyl-5-bromo-2-thienylketone] | 20% | 20% | 10% | 0% | 10% | 50% |  |  |  |  |  | 
O=C(CCN(CCO)CCO)c1ccc(Br)s1 [Example 330, 2-(N-bishydroxyethyl)aminoethyl-5-bromo-2-thienylketone] | 10% | 10% | 20% | 30% | 40% | 50% |  |  |  |  |  | 
CCN(CCO)CCC(=O)c1ccc(Br)s1 [Example 331, 2-(N-2-hydroxyethylethyl)aminoethyl-5-bromo-2-thienylketone] | 0% | 10% | 20% | 0% | 10% | 70% |  |  |  |  |  | 
CC(C)(C)N(CCO)CCC(=O)c1ccc(Br)s1 [Example 332, 2-(N-hydroxyethyl-t-butyl)aminoethyl-5-bromo-2-thienylketone] |  |  |  |  |  |  | 0% | 10% | 20% | 0% | 10% | 50%
O=C(CCN1CCCC1CO)c1ccc(Br)s1 (stereo not drawn) [Example 333, 2-(2-hydroxymethylpyrrolidinyl)aminoethyl-5-bromo-2-thienylketone] | 20% | 30% | 20% | 0% | 30% | 50% |  |  |  |  |  | 
NCCN(CCO)CCC(=O)c1ccc(Br)s1 [Example 334, 2-(N-2-hydroxyethyl-N-2-aminoethyl)aminoethyl-5-bromo-2-thienylketone] | 30% | 30% | 40% | 20% | 0% | 60% |  |  |  |  |  | 
O=C(CCNCCS)c1ccc(Br)s1 [Example 335, 2-(N-mercaptoethyl)aminoethyl-5-bromo-2-thienylketone] | 20% | 30% | 50% | 10% | 50% | 70% |  |  |  |  |  | 
O=C(CCNc1ccccc1O)c1ccc(Br)s1 [Example 336, 2-(N-hydroxyphenyl)aminoethyl-5-bromo-2-thienylketone] | 10% | 0% | 0% | 20% | 10% | 60% |  |  |  |  |  | 
CCCCN(CCC(=O)c1ccc(Br)s1)c1ccccc1 [Example 337, 2-(N-phenyl-N-n-butyl)aminoethyl-5-bromo-2-thienylketone] | 20% | 30% | 40% | 50% | 20% | 0% |  |  |  |  |  | 
CCCCN(CCCC)CCC(=O)c1ccc(Br)s1 [Example 338, 2-(N,N-di-n-butyl)aminoethyl-5-bromo-2-thienylketone] | 0% | 0% | 24% | 50% | 50% | 60% |  |  |  |  |  | 
CCC(C)N(CCC(=O)c1ccc(Br)s1)C(C)CC (stereo not drawn) [Example 339, 2-(N,N-di-sec-butyl)aminoethyl-5-bromo-2-thienylketone] | 0% | 8% | 61% | 50% | 80% | 60% |  |  |  |  |  | 
O=C(CCNC(CO)c1ccccc1)c1ccc(Br)s1 (stereo not drawn) [Example 342, 2-(N-1-phenyl-2-hydroxyethyl)aminoethyl-5-bromo-2-thienylketone] | 0% | 0% | 34% | 0% | 20% | 40% |  |  |  |  |  | 
NCC(O)CNCCC(=O)c1ccc(Br)s1 (stereo not drawn) [Example 343, 2-(N-2-hydroxy-3-aminopropyl)aminoethyl-5-bromo-2-thienylketone] | 0% | 0% | 26% | 50% | 70% | 80% |  |  |  |  |  | 
NCCCCN(CCCN)CCC(=O)c1ccc(Br)s1 [Example 344, 2-(N-4-aminobutyl-N-3-aminopropyl)aminoethyl-5-bromo-2-thienylketone] | 0% | 2% | 6% | 10% | 40% | 30% |  |  |  |  |  | 
O=C(CCN1CCCC1O)c1ccc(Br)s1 (stereo not drawn) [Example 345, 2-(N-2-hydroxypyrrolidino)aminoethyl-5-bromo-2-thienylketone] | 0% | 0% | 10% | 0% | 20% | 70% |  |  |  |  |  | 
O=C(CCNc1ccccc1S)c1ccc(Br)s1 [Example 347, 2-(N-2-mercaptophenyl)aminoethyl-5-bromo-2-thienylketone] | 0% | 0% | 0% | 0% | 20% | 50% |  |  |  |  |  | 
O=C(CCN1CCCCC1)c1ccc(Br)s1 [Example 348, 2-piperidinoethyl-5-bromo-2-thienylketone] | 0% | 0% | 16% | 20% | 0% | 20% |  |  |  |  |  | 
O=C(CCNCC(O)c1ccccc1)c1ccc(Br)s1 (stereo not drawn) [Example 349, 2-(2-hydroxy-2-phenylethyl)aminoethyl-5-bromo-2-thienylketone] | 46% | 0% | 0% | 20% | 0% | 50% |  |  |  |  |  | 
O=C(CCN1CCCCC1CO)c1ccc(Br)s1 (stereo not drawn) [Example 350] | 10% | 2% | 3% | 60% | 50% | 70% |  |  |  |  |  | 
O=C(CCNCCc1ccccc1)c1ccc(Br)s1 [Example 351, 2-phenethylaminoethyl-5-bromo-2-thienylketone] | 0% | 9% | 32% | 30% | 0% | 0% |  |  |  |  |  | 
O=C(CCNCCCO)c1ccc(Br)s1 [Example 352, 2-(3-hydroxypropyl)aminoethyl-5-bromo-2-thienylketone] | 0% | 0% | 34% | 30% | 0% | 0% |  |  |  |  |  | 
